One series concerns the target T1, ABL1 (Homo sapiens, UniProt P00519).
T1 construct: purchased Invitrogen
Description: In vitro kinase inhibition activity (33P-ATP radiometric filter assay), ABL1. The class given is biochemical. As for the experimental part: (§1) Test group: 50 μl DMSO was used to dissolve the compound of Formula I and Dasatinib, respectively, and the final drug concentration was 10 mM.
(§2) Starting concentration of drugs in the test group: 1 μM
(§3) Buffer solution conditions: 20 mM Hepes (pH 7.5), 10 mM MgCl2, 1 mM EGTA, 0.02% Brij35, 0.02 mg/ml BSA, 0.1 mM Na3VO4, 2 mM DTT, 1% DMSO.
(§4) Note: Required enzyme cofactor were added separately to each kinase reaction.
(§5) a) An indicated substrate was prepared in a freshly made reaction buffer.
(§6) b) Any required enzyme cofactors were added into the substrate solution described above.
(§7) c) The indicated kinase was added into the substrate solution and gently mixed.
(§8) d) The test drugs were added into the kinase reaction mixture using Echo 550.
(§9) e) ^33P-ATP (specific radioactivity 0.01 μCi/μl) was added into the reaction mixture, and the reaction was initiated.
(§10) g) The reaction was spotted onto P81 ion-exchange paper.
(§11) h) The filter was washed with 0.75% phosphoric acid.
(§12) i) The radioactive phosphorylated substrate remaining on the filter paper was measured.
(§13) Kinase activity data are expressed as the percent of the remaining kinase activity in the test samples compared with the reactions of the vehicle (dimethyl sulfoxide). IC50 values and curve fitting were obtained using Prism4 software (GraphPad).

For a further series, the target named is T2, BTK (C481S) (Homo sapiens, UniProt Q06187, C481S).
T2 construct: purchased Signal Chem
Description: In vitro kinase inhibition activity (33P-ATP radiometric filter assay), BTK (C481S). The class given is biochemical. As for the experimental part:
as §1, §2, §3, §4, §5, §6, §7, §8, §9, §10, §11, §12, §13

A further series concerns the target T3, BTK (Homo sapiens, UniProt Q06187).
T3 construct: purchased Invitrogen
Description: In vitro kinase inhibition activity (33P-ATP radiometric filter assay), BTK. The class given is biochemical. The procedure:
as §1, §2, §3, §4, §5, §6, §7, §8, §9, §10, §11, §12, §13

The nature of a further series: in vitro. Conditions: human, microsomes; for CLint scaled at 1 μM / half-life at 1 μM: pH 7.4. As for the experimental part: Test compound concentration: 1.0 μM
Buffer solution: 0.05 M phosphate buffer solution (pH 7.4)
Human liver microsomes: Corning® UltraPool™ HLM 150, 20 mg/mL
NADPH concentration: 1.0 mM
Total reaction volume: 850 μL
Incubation temperature: 37° C.
Pre-incubation time: 5 min (no NADPH added)
Sampling time: 0, 5, 10, 15, 20 and 30 min (0, 15 and 30 min for control group)
Sampling volume: 85 μL per time point
Test compounds: Verapamil, Dasatinib, and the compound of Formula I
a) Solutions of 10 mM test compounds in DMSO were diluted to 100 μM using acetonitrile:water (50:50).
c) 2.5 mM NADPH solution was formulated.
d) The liver microsomal protein, buffer solution, and test compound were pipetted sequentially into 1.5 ml incubation tubes according to the volume in the experimental design table, and incubated at 37° C. for 5 min with constant shaking.
e) 85 μL of the quenching reagent was added into a 250 μL quenching vial which was then placed on an ice bath.
f) The reaction was initiated by adding NADPH solution, and 85 μL sample was immediately taken and mixed evenly in the quenching vial with controlled incubation and quenching, this is referred to 0 min sampling point. The sample was capped, vortexed and centrifuged at 4° C.
g) The quenching solution was placed at 4° C. for 10 min for the precipitation of the protein.
h) The operations of other sampling points was similar to that of the 0 min sampling point.
i) The sample quenching reaction mixture solution was thoroughly mixed evenly and centrifuged at 14000 rpm for 10 min at room temperature.
j) The supernatant (˜100 μl) was pipetted for LC-MS analysis.
Instrument: Waters® ACQUITY HPLC-Xevo G2-XS QTof
Chromatographic column: ACQUITY UPLC® BEH C18 column 2.1×50 mm, 1.7 μm
Mobile phase: mobile phase A was 0.1% formic acid in water and mobile phase B was 0.1% formic acid in acetonitrile.
The amount of the parent compound at each time point was determined based on the peak area ratio (compound area/warfarin area).
The intrinsic clearance (CLint) was calculated by the following equation:
V(μL/mg)=volume of incubation (μL)/protein amount in the incubation (mg)

T2 sequence (Q06187 whole entry C481S): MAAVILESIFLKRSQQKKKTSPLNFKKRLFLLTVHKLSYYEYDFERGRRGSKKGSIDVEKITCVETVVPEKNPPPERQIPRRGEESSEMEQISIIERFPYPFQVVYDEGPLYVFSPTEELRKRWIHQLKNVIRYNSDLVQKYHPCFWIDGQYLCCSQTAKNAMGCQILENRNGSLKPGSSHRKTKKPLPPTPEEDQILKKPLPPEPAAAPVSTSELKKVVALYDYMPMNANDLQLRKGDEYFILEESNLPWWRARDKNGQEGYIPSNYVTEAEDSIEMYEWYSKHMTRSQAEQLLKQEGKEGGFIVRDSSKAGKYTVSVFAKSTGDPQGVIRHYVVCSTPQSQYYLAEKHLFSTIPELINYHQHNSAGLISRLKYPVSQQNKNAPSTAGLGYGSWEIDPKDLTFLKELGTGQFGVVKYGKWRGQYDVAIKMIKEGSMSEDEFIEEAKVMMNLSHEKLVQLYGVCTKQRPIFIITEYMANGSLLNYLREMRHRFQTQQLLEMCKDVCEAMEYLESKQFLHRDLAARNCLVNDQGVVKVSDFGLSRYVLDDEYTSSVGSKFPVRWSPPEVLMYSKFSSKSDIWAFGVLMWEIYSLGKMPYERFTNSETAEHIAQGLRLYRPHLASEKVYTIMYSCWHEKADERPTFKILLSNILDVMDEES
T1 sequence (P00519 whole entry): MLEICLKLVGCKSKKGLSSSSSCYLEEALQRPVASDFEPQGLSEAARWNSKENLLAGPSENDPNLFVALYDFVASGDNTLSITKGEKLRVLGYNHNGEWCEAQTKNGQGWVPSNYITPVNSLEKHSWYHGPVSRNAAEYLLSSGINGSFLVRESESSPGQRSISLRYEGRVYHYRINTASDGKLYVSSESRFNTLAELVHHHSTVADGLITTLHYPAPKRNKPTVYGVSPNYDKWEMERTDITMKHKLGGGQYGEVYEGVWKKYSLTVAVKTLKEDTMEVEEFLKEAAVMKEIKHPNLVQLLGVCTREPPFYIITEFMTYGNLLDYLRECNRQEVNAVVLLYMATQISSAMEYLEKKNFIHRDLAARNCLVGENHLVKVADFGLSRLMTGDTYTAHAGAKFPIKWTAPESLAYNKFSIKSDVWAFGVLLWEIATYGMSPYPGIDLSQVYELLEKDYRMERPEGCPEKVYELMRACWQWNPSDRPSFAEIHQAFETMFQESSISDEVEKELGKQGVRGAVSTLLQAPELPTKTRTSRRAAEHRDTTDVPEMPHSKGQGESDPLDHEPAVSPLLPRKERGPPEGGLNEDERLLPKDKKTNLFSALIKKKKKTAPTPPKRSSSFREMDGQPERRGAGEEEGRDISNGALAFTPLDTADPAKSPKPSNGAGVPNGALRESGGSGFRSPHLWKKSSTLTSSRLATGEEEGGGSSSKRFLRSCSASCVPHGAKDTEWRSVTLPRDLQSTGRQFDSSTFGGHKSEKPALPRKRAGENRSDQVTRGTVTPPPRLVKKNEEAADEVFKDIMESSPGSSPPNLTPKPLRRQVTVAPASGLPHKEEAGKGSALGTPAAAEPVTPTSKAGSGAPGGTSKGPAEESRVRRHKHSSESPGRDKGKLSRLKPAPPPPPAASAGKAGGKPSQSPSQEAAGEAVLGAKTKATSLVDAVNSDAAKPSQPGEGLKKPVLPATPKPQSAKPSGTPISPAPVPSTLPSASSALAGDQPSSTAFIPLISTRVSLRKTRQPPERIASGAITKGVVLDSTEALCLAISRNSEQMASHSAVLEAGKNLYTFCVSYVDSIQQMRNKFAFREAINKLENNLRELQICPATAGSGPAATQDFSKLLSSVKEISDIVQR
T3 sequence (Q06187 whole entry): as the sequence (Q06187 whole entry C481S) above, with S481C counted along it

One may read the IC50 as the point on the concentration scale where inhibition reaches its midpoint. Broadly, the CLint scaled is a measure of how fast metabolising enzymes remove a compound, apart from limits set by blood flow. One may read the half-life as the time in which the quantity being followed falls by half. In the case of `Cc1nc(Nc2ncc(C(=O)Nc3c(C)cc(F)cc3Cl)s2)cc(N2CCN(CCO)CC2)n1` [The compound of Formula I, N-(2-chloro-4-fluoro-6-methylphenyl)-2-[[6-[4-(2-hydroxyethyl)-1-piperazinyl]-2-methyl-4-pyrimidinyl]amino]-5-thiazolecarboxamide], the IC50 is 0.0042 nM against ABL1 (ABL1 0.1 nM, ABLtide 20 μM, ATP 10 μM, 15 min compound incubation, 2 h reaction); 0.032 nM against BTK (C481S) (BTK (C481S) 6 nM, pEY 0.2 mg/ml, ATP 10 μM, 15 min compound incubation, 2 h reaction); 0.157 nM on BTK (BTK 8 nM, pEY 0.2 mg/ml, ATP 10 μM, 15 min compound incubation, 2 h reaction). Moreover, the “Ratio Dasatinib/the compound of Formula I” value on ABL1 (ratio of IC50 values, ABL1) was determined as 5.95; on BTK (C481S) (ratio of IC50 values, BTK (C481S)) it was 3.53; on BTK (ratio of IC50 values, BTK) it was 3.32. Moreover, the “Clearance” value in “in vitro” was determined as 0.0426 min⁻¹. The same compound returned an intrinsic clearance (CLint scaled) at 1 μM in the series “in vitro” of 142 mL/min/kg. For the same compound, the half-life at 1 μM in the series “in vitro” is 16.3 min.

As for `Cc1nc(Nc2ncc(C(=O)Nc3c(C)cccc3Cl)s2)cc(N2CCN(CCO)CC2)n1` [Dasatinib, reference compound], in “in vitro”, the “Clearance” value was found to be 0.0635 min⁻¹, the CLint scaled at 1 μM worked out at 211 mL/min/kg and the half-life at 1 μM was determined as 10.9 min.

Values taken from patent US20220249480A1, “APPLICATION OF FLUORO-SUBSTITUTED 2-AMINOTHIAZOLE-5-AROMATIC CARBOXAMIDE” (HUNAN WARRANT PHARMACEUTICAL CO., LTD, priority 2019, published 2022).
